Target: T1, human serum albumin (HSA) (Homo sapiens, UniProt P02768)
T1 construct: gene ALB; fatty-acid-free HSA, commercial (Sigma-Aldrich); mature protein, 585 residues, monomer
Test: intrinsic Trp fluorescence quenching, double-log plot
Format: binding
Settings: 298 K, pH 7.4 PBS 10 mM, HSA 2 μM; λex 280 nm; n = 1.14; site I (subdomain IIA)
Description: intrinsic Trp fluorescence quenching, double-log plot on human serum albumin (HSA) | the association constant (Ka) between GDC-0941 and HSA was calculated

T1 sequence (P02768 25-609): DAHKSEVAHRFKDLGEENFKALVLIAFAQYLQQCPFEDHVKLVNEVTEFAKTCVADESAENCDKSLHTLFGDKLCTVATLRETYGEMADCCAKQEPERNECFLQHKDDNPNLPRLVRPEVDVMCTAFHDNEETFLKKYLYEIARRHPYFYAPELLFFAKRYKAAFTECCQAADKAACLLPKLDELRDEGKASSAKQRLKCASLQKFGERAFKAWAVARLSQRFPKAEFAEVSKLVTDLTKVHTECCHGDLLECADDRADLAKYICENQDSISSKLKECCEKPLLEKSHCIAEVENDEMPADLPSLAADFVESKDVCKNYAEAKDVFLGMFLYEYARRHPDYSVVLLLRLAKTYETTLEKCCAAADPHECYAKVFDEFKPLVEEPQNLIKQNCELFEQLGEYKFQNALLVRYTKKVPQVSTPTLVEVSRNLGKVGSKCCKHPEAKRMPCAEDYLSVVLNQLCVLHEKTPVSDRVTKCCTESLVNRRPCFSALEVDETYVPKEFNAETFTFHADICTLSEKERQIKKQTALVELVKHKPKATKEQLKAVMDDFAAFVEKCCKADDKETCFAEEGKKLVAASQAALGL

Ka (×10^5 M^-1): 4.09 ×10^5 M^−1
Structure (SMILES): CS(=O)(=O)N1CCN(Cc2cc3nc(-c4cccc5[nH]ncc45)nc(N4CCOCC4)c3s2)CC1 [GDC-0941]

From article PMC9413508, “PI3K/mTOR Dual Inhibitor Pictilisib Stably Binds to Site I of Human Serum Albumin as Observed by Computer Simulation, Multispectroscopic, and Microscopic Studies” (Molecules, 2022)
